This note sets out measurements from patent publication US20210070748A1, “INHIBITORS OF BRUTONS TYROSINE KINASE” (Pharmacyclics LLC, priority 2015, published 2021).

Like-named read-outs stand apart in the source and are kept apart here. Bounds are passed on as bounds.

Holding throughout (assay type): biochemical
Experiment [1] concerns the target T1, JAK3 (Homo sapiens, UniProt P52333).
T1 sequence (P52333 1-1124): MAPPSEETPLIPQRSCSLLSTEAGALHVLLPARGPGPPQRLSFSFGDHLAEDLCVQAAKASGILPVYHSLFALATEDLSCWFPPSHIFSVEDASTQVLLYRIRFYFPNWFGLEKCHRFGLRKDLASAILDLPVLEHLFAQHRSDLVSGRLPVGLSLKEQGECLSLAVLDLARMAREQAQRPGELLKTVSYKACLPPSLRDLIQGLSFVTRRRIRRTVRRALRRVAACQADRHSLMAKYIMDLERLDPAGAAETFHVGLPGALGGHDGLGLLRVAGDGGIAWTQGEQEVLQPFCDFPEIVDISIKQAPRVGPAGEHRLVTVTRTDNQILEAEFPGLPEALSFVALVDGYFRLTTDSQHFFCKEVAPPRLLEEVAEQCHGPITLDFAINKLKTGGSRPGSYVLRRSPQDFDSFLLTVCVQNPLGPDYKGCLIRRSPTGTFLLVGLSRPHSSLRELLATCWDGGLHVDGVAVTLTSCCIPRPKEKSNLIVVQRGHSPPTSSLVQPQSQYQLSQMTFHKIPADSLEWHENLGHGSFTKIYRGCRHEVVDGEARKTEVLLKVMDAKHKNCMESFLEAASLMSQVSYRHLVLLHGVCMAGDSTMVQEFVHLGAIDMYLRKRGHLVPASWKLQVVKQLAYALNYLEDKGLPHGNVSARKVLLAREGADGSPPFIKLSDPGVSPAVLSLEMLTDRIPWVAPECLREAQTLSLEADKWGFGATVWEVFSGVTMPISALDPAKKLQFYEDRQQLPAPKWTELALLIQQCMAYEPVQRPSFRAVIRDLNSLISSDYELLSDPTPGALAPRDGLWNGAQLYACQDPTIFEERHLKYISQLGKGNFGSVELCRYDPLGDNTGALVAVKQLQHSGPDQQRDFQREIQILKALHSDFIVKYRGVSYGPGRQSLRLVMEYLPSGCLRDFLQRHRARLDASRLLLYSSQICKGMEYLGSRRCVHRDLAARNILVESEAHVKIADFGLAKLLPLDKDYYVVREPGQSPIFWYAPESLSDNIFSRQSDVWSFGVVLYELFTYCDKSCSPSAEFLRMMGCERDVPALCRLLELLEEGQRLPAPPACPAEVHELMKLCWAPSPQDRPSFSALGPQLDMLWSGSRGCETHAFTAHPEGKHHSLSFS
Kind of experiment: Inhibition of a panel of kinases, in vitro HotSpot kinase assay: JAK3. The following applies: read-out: IC50 JAK3.

Experiment [2] addresses EGFR (Homo sapiens, UniProt P00533). Kind of experiment: Inhibition of a panel of kinases, in vitro HotSpot kinase assay: EGFR. As for the experimental part: (§1) The degree of inhibition of a panel of kinases is determined using the in vitro HotSpot kinase assay (purified enzymes, ^33P-ATP, an appropriate substrate and 1 μM ATP).
Experiment [3] addresses SRC (Homo sapiens, UniProt P12931). Kind of experiment: Inhibition of a panel of kinases, in vitro HotSpot kinase assay: SRC. The protocol: as §1
Experiment [4] addresses T2, TEC (Homo sapiens, UniProt P42680).
T2 sequence (P42680 1-631): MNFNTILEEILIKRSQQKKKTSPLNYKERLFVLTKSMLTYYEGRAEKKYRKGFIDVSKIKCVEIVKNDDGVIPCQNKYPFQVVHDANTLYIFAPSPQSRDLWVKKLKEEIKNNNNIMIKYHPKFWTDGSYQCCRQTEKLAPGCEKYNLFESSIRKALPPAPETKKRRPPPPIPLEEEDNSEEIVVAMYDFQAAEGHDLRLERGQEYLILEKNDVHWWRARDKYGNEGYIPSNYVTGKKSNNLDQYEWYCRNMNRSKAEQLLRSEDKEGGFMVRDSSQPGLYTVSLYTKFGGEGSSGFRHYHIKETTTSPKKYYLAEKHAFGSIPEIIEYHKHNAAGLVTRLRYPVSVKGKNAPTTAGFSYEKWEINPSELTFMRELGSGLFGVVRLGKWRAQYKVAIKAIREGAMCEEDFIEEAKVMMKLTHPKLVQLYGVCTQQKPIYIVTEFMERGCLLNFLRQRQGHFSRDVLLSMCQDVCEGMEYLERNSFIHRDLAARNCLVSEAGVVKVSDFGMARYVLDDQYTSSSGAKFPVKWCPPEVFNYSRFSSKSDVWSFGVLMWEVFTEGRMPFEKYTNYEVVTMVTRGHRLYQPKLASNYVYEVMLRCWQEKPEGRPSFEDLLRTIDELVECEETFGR
The experiment can be described thus: Inhibition of a panel of kinases, in vitro HotSpot kinase assay: TEC. As for the experimental part:
as §1

Setting [5] is: Table 13, A compounds, 1 μM ATP.

EGFR, sequence (P00533 25-1210): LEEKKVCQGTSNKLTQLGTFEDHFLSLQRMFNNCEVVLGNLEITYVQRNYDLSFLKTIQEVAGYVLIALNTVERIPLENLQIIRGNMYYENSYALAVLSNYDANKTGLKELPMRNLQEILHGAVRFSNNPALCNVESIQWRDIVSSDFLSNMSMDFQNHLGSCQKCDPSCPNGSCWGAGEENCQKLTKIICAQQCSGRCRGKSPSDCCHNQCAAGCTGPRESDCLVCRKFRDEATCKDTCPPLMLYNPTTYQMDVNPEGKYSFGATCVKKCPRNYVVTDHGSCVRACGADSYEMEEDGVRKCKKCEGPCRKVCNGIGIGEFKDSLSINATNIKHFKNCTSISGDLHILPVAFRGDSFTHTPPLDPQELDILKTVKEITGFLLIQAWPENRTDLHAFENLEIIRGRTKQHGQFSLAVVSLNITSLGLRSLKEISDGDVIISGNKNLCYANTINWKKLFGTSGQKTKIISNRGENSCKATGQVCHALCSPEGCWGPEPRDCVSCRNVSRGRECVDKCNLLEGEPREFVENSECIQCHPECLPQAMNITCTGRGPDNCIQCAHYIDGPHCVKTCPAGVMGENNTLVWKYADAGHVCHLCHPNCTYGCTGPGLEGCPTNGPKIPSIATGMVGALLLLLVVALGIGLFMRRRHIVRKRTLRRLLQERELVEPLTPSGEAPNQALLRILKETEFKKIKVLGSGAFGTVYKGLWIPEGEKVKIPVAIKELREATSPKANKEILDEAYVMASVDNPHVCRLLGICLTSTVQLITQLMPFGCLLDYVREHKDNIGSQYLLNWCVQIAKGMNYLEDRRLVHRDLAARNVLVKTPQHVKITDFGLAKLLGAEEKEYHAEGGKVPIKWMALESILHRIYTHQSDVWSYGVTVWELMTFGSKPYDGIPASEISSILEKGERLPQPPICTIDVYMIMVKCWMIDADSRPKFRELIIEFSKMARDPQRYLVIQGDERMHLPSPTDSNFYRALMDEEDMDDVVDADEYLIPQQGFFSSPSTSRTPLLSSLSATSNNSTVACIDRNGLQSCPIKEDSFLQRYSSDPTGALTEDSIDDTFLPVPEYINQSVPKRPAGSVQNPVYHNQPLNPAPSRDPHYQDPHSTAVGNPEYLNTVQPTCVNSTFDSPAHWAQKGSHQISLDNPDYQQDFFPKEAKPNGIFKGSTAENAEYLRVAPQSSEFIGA
SRC, sequence (P12931 whole entry): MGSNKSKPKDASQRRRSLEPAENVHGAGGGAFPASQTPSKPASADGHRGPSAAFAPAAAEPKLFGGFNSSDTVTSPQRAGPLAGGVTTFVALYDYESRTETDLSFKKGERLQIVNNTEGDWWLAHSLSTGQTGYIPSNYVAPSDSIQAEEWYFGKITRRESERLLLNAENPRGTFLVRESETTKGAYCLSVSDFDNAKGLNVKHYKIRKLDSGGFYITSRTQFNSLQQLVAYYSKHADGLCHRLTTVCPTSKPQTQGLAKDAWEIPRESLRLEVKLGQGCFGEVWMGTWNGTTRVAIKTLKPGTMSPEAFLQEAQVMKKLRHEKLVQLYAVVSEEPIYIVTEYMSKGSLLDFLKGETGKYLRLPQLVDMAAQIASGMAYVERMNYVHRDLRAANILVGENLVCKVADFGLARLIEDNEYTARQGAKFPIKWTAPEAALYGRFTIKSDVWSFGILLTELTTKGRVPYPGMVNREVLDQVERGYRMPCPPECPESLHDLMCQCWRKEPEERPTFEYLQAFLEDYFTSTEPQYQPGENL

For `C[C@@H]1[C@H](NC(=O)c2cccc(C(C)(C)O)c2)CCCN1c1cnc(C(N)=O)c(Nc2cnn(C)c2)n1` [Example E-145, 5-((2R,3R)-3-(3-(2-hydroxypropan-2-yl)benzamido)-2-methylpiperidin-1-yl)-3-((1-methyl-1H-pyrazol-4-yl)amino)pyrazine-2-carboxamide], the concentration for half-maximal inhibition (IC50) (usually the concentration needed to halve the response being measured) was 100 to 1000 nM in experiment [1] (E compounds, Table 17); 100 to 1000 nM in experiment [2] (E compounds, Table 17); 10 to 100 nM in experiment [3] (E compounds, Table 17); not above 10 nM in experiment [4] (E compounds, Table 17).

As to `C[C@@H]1[C@H](NC(=O)c2ccc(C3CC3)cc2F)CCCN1c1cnc(C(N)=O)c(Nc2cnn(C)c2)c1` [Example A-127, 5-[(2R,3R)-3-(4-cyclopropyl-2-fluorobenzamido)-2-methylpiperidin-1-yl]-3-[(1-methyl-1H-pyrazol-4-yl)amino]pyridine-2-carboxamide], the IC50 lay within 1000 to 10000 nM in experiment [1] (setting [5]), 1000 to 10000 nM in experiment [2] (setting [5]), 100 to 1000 nM in experiment [3] (setting [5]) and 100 to 1000 nM in experiment [4] (setting [5]).

Take `CN1CCC(n2cc(Nc3nc(N4CCC[C@@H](n5ccc6cc(C7CC7)ccc6c5=O)C4)cnc3C(N)=O)cn2)CC1` [Example A-178, 5-[(3R)-3-(6-cyclopropyl-1-oxo-1,2-dihydroisoquinolin-2-yl)piperidin-1-yl]-3-{[1-(1-methylpiperidin-4-yl)-1H-pyrazol-4-yl]amino}pyrazine-2-carboxamide]: the IC50 in experiment [1] (setting [5]) lay in the range of 1000 to 10000 nM; in experiment [2] (setting [5]) it was 1000 to 10000 nM; in experiment [3] (setting [5]) it was 100 to 1000 nM; in experiment [4] (setting [5]), 10 to 100 nM.

As to `CN1CCN(C(=O)c2ccc(Nc3nc(N4CCC[C@@H](n5ccc6cc(C7CC7)ccc6c5=O)C4)cnc3C(N)=O)cc2)CC1` [Example A-115, 5-[(3R)-3-(6-cyclo-propyl-1-oxo-1,2-dihydroisoquinolin-2-yl)piperidin-1-yl]-3-{[4-(4-methylpiperazine-1-carbonyl)phenyl]amino}pyr-azine-2-carboxamide], the 50% inhibitory concentration (IC50) in experiment [1] (setting [5]) fell in the range of 100 to 1000 nM; in experiment [2] (setting [5]) it was 100 to 1000 nM; in experiment [3] (setting [5]) it was 100 to 1000 nM; in experiment [4] (setting [5]), 10 to 100 nM.

Turning to `Cn1cc(Nc2nc(N3CCCC(C)(NC(=O)c4ccc(C5CC5)cc4)C3)cnc2C(N)=O)cn1` (centres unmarked) [Example E-150, 5-(3-(4-cyclopropylbenzamido)-3-methylpiperidin-1-yl)-3-((1-methyl-1H-pyrazol-4-yl)amino)pyrazine-2-carboxamide], the 50% inhibitory concentration (IC50) in experiment [1] (E compounds, Table 17) was 1000 to 10000 nM; in experiment [2] (E compounds, Table 17) it was more than 10000 nM; in experiment [3] (E compounds, Table 17) it was 1000 to 10000 nM; in experiment [4] (E compounds, Table 17), 100 to 1000 nM.

Regarding `C[C@@H]1[C@H](NC(=O)c2ccc(C3CC3)cc2F)CCCN1c1cnc(C(N)=O)c(Nc2ccc(N3CCN(C)CC3)c(F)c2)n1` [Example A-171, 5-[(2R,3R)-3-(4-cyclopropyl-2-fluorobenzamido)-2-methylpiperidin-1-yl]-3-{[3-fluoro-4-(4-methylpiperazin-1-yl)phenyl]amino}pyrazine-2-carboxamide], the IC50 fell in the range of 1000 to 10000 nM in experiment [1] (setting [5]), 100 to 1000 nM in experiment [2] (setting [5]), 10 to 100 nM in experiment [3] (setting [5]) and 10 to 100 nM in experiment [4] (setting [5]).

Take `C[C@@H]1[C@H](NC(=O)c2ccc(C3CC3)cc2F)CCCN1c1cnc(C(N)=O)c(Nc2ccc(S(=O)(=O)N3CCN(C)CC3)cc2)n1` [Example A-156, 5-[(2R,3R)-3-(4-cyclopropyl-2-fluorobenzamido)-2-methylpiperidin-1-yl]-3-({4-[(4-methylpiperazin-1-yl)sulfonyl]phenyl}amino)pyr-azine-2-carboxamide]: the 50% inhibitory concentration (IC50) is more than 10000 nM in experiment [1] (setting [5]), 1000 to 10000 nM in experiment [2] (setting [5]), 100 to 1000 nM in experiment [3] (setting [5]) and 100 to 1000 nM in experiment [4] (setting [5]).

For `C[C@@H]1[C@H](NC(=O)c2ccc(C3CC3)cc2F)CCCN1c1cnc(C(N)=O)c(Nc2cc(CN3CCOCC3)ns2)n1` [Example A-128, 5-[(2R,3R)-3-(4-cyclopropyl-2-fluorobenzamido)-2-methylpiperidin-1-yl]-3-{[3-(morpholin-4-ylmethyl)-1,2-thiazol-5-yl]amino}pyrazine-2-carboxamide], the concentration for half-maximal inhibition (IC50) in experiment [1] (setting [5]) fell in the range of 100 to 1000 nM; in experiment [2] (setting [5]), 100 to 1000 nM; in experiment [3] (setting [5]) it was 10 to 100 nM; in experiment [4] (setting [5]), 10 to 100 nM.

As for `C[C@@H]1[C@H](NC(=O)c2ccc(C3CC3)cc2F)CCCN1c1cnc(C(N)=O)c(Nc2ccc(S(=O)(=O)N3CCCC3)cc2)n1` [Example A-175, 5-[(2R,3R)-3-(4-cyclopropyl-2-fluorobenzamido)-2-methylpiperidin-1-yl]-3-{[4-(pyrrolidine-1-sulfonyl)phenyl]amino}pyr-azine-2-carboxamide], the concentration for half-maximal inhibition (IC50) in experiment [1] (setting [5]) was more than 10000 nM; in experiment [2] (setting [5]), 1000 to 10000 nM; in experiment [3] (setting [5]), more than 10000 nM; in experiment [4] (setting [5]) it was 100 to 1000 nM.

Consider `C[C@@H]1CCN(c2cnc(C(N)=O)c(Nc3cnn(C)c3)n2)C[C@@H]1NC(=O)c1ccc(C2CC2)cc1` [Example E-140, 5-((3R,4R)-3-(4-cyclopropylbenzamido)-4-methylpiperidin-1-yl)-3-((1-methyl-1H-pyrazol-4-yl)amino)pyrazine-2-carboxamide], for which the concentration for half-maximal inhibition (IC50) in experiment [1] (E compounds, Table 17) is more than 10000 nM; in experiment [2] (E compounds, Table 17) it was more than 10000 nM; in experiment [3] (E compounds, Table 17), more than 10000 nM; in experiment [4] (E compounds, Table 17), 1000 to 10000 nM.

Regarding `C=CC(=O)N1CCC[C@@H](Nc2nnc(C(N)=O)c(Nc3ccc(-c4ncco4)cc3)n2)C1` [Example E-40, (R)-3-(1-acryloylpiperidin-3-ylamino)-5-(4-(oxazol-2-yl)phenylamino)-1,2,4-triazine-6-carboxamide], the IC50 in experiment [1] (E compounds, Table 17) was less than 10 nM; in experiment [2] (E compounds, Table 17), not above 10 nM; in experiment [3] (E compounds, Table 17), 100 to 1000 nM; in experiment [4] (E compounds, Table 17), not above 10 nM.

Turning to `C[C@@H]1[C@H](NC(=O)c2ccc(C3CC3)nc2)CCCN1c1cnc(C(N)=O)c(Nc2cnn(C)c2)n1` [Example A-190, 5-((2R,3R)-3-(6-cyclopropylnicotinamido)-2-methylpiperidin-1-yl)-3-(1-methyl-1H-pyrazol-4-ylamino)pyr-azine-2-carboxamide], the IC50 in experiment [1] (setting [5]) is 1000 to 10000 nM; in experiment [2] (setting [5]), 1000 to 10000 nM; in experiment [3] (setting [5]), 10 to 100 nM; in experiment [4] (setting [5]), 10 to 100 nM.

`Cn1cc(Nc2nc(N3C[C@@H](NC(=O)c4ccc(C5CC5)cc4)CC(F)(F)C3)cnc2C(N)=O)cn1` [Example A-187, (S)-5-(5-(4-cyclopropylbenzamido)-3,3-difluoropiperidin-1-yl)-3-(1-methyl-1H-pyrazol-4-ylamino)pyrazine-2-carboxamide]: the IC50 in experiment [1] (setting [5]) is 1000 to 10000 nM; in experiment [2] (setting [5]) it was 1000 to 10000 nM; in experiment [3] (setting [5]) it was more than 10000 nM; in experiment [4] (setting [5]), 1000 to 10000 nM.

For `Cc1cc(Nc2nc(N3CCC[C@@H](n4ccc5cc(C6CC6)ccc5c4=O)C3)cnc2C(N)=O)sn1` [Example A-107, 5-[(3R)-3-(6-cyclopropyl-1-oxo-1,2-dihydroisoquinolin-2-yl)piperidin-1-yl]-3-[(3-methyl-1,2-thiazol-5-yl)amino]pyrazine-2-carboxamide], the IC50 in experiment [1] (setting [5]), in experiment [2] (setting [5]), in experiment [3] (setting [5]) and in experiment [4] (setting [5]) was more than 10000 nM in each case.
